ChEMBL document CHEMBL5715954, “Silencing c-Myc translation as a therapeutic strategy through targeting PI3Kδ and CK1ε in hematological malignancies” (Blood, 2017)
Activity calls are given as the source filed them. The calls are words filed in the database; no cut-off is given here.

How the values were obtained:
[1] = biological target: T1, mTORC1 (Homo sapiens) (UniProt P42345+Q8N122+Q9BVC4); test: Inhibition of mTORC1 in human SLL cells assessed as reduction in c-Myc expression at 5 uM measured after 24 hrs in presence of bortezomib by Western blot analysis; format: cell-based
[2] = biological target: T1, mTORC1 (Homo sapiens); test: Inhibition of mTORC1 in human CLL cells assessed as reduction in c-Myc expression at 5 uM measured after 24 hrs by Western blot analysis; format: cell-based; settings: CLL cell
[3] = biological target: T1, mTORC1 (Homo sapiens); test: Inhibition of mTORC1 in human SLL cells assessed as reduction in c-Myc expression at 5 uM measured after 24 hrs by Western blot analysis; format: cell-based
[4] = biological target: T1, mTORC1 (Homo sapiens); test: Inhibition of mTORC1 in human PF-382 cells assessed as reduction in c-Myc expression at 5 uM measured after 24 hrs by Western blot analysis; format: cell-based
[5] = biological target: T1, mTORC1 (Homo sapiens); test: Inhibition of mTORC1 in human CLL cells assessed as reduction in 4E-BP1 phosphorylation at 5 uM measured after 24 hrs by Western blot analysis; format: cell-based; settings: CLL cell
[6] = biological target: T1, mTORC1 (Homo sapiens); test: Inhibition of mTORC1 in human SLL cells assessed as reduction in 4E-BP1 phosphorylation at 5 uM measured after 24 hrs by Western blot analysis; format: cell-based
[7] = biological target: T1, mTORC1 (Homo sapiens); test: Inhibition of mTORC1 in human LY7 cells assessed as reduction in 4E-BP1 phosphorylation at 3 uM measured after 24 hrs by Western blot analysis; format: cell-based
[8] = biological target: T1, mTORC1 (Homo sapiens); test: Inhibition of mTORC1 in human PF-382 cells assessed as reduction in 4E-BP1 phosphorylation at 5 uM measured after 24 hrs by Western blot analysis; format: cell-based
[9] = biological target: T1, mTORC1 (Homo sapiens); test: Inhibition of mTORC1 in human LY10 cells assessed as reduction in 4E-BP1 phosphorylation at 3 uM measured after 24 hrs by Western blot analysis; format: cell-based
[10] = biological target: T1, mTORC1 (Homo sapiens); test: Inhibition of mTORC1 in human LY10 cells assessed as reduction in c-Myc expression at 3 uM measured after 24 hrs in presence of carfilzomib by Western blot analysis; format: cell-based
[11] = test system: LY7; test: Cytotoxicity against human LY7 cells assessed as reduction in cell viability measured after 24 hrs by cell titer-glo assay; format: functional, cell-based
[12] = test system: H9; test: Cytotoxicity against human H9 cells assessed as reduction in cell viability measured after 48 hrs by cell titer-glo assay; format: functional, cell-based
[13] = test system: OCI-Ly10; test: Cytotoxicity against human LY10 cells assessed as reduction in cell viability measured after 24 hrs by cell titer-glo assay; format: functional, cell-based
[14] = test system: JeKo-1; test: Cytotoxicity against human JeKo-1 cells assessed as reduction in cell viability measured after 24 hrs by cell titer-glo assay; format: functional, cell-based
[15] = test system: Rec1; test: Cytotoxicity against human REC1 cells assessed as reduction in cell viability measured after 24 hrs by cell titer-glo assay; format: functional, cell-based
[16] = test system: OCI-Ly10; test: Induction of apoptosis in human LY10 cells assessed as increase in cleaved-PARP expression at 3 uM measured after 24 hrs in presence of carfilzomib by Western blot analysis; format: functional, cell-based
[17] = test system: LY7; test: Induction of apoptosis in human LY7 cells assessed as increase in cleaved-PARP expression at 3 uM measured after 24 hrs in presence of carfilzomib by Western blot analysis; format: functional, cell-based
[18] = test system: CLL cell; test: Induction of apoptosis in human CLL cells assessed as increase in cleaved-PARP expression at 5 uM measured after 24 hrs in presence of carfilzomib by Western blot analysis; format: functional, cell-based
[19] = test system: SLL; test: Induction of apoptosis in human SLL cells assessed as increase in cleaved-PARP expression at 5 uM measured after 24 hrs in presence of carfilzomib by Western blot analysis; format: functional, cell-based
[20] = test system: MZL; test: Induction of apoptosis in human MZL cells assessed as increase in cleaved-PARP expression at 5 uM measured after 24 hrs in presence of carfilzomib by Western blot analysis; format: functional, cell-based
[21] = test system: OCI-Ly10; test: Induction of apoptosis in human LY10 cells assessed as increase in caspase-3/7 activation at 1 to 3 uM measured after 24 hrs in presence of carfilzomib; format: functional, cell-based; settings: dose 1-3 µM
[22] = biological target: T1, mTORC1 (Homo sapiens); test: Inhibition of mTORC1 in human LY10 cells assessed as reduction in c-Myc mRNA expression at 3 uM measured after 24 hrs in presence of carfilzomib; format: cell-based
[23] = biological target: T1, mTORC1 (Homo sapiens); test: Inhibition of mTORC1 in human LY10 cells assessed as reduction in c-Myc mRNA expression at 3 uM measured after 24 hrs in presence of bortezomib; format: cell-based
[24] = biological target: Myc proto-oncogene protein (Homo sapiens) (UniProt P01106); test: Inhibition of c-Myc in human LY7 cells assessed as reduction in E2F1 expression at 3 uM incubated for 24 hrs by Western blot analysis; format: cell-based
[25] = test system: NCI-H929; test: Cytotoxicity against human NCI-H929 cells transduced with an eIF4E-overexpressing plasmid assessed as reduction in cell viability at 5 uM incubated for 24 hrs in presence of carfilzomib by cell-titer glo assay; format: functional, cell-based
[26] = test system: NCI-H929; test: Cytotoxicity against human NCI-H929 cells transduced with an empty vector assessed as reduction in cell viability at 5 uM incubated for 24 hrs in presence of carfilzomib by cell-titer glo assay; format: functional, cell-based

T1 sequence (Q8N122 whole entry, looked up, other chains not shown): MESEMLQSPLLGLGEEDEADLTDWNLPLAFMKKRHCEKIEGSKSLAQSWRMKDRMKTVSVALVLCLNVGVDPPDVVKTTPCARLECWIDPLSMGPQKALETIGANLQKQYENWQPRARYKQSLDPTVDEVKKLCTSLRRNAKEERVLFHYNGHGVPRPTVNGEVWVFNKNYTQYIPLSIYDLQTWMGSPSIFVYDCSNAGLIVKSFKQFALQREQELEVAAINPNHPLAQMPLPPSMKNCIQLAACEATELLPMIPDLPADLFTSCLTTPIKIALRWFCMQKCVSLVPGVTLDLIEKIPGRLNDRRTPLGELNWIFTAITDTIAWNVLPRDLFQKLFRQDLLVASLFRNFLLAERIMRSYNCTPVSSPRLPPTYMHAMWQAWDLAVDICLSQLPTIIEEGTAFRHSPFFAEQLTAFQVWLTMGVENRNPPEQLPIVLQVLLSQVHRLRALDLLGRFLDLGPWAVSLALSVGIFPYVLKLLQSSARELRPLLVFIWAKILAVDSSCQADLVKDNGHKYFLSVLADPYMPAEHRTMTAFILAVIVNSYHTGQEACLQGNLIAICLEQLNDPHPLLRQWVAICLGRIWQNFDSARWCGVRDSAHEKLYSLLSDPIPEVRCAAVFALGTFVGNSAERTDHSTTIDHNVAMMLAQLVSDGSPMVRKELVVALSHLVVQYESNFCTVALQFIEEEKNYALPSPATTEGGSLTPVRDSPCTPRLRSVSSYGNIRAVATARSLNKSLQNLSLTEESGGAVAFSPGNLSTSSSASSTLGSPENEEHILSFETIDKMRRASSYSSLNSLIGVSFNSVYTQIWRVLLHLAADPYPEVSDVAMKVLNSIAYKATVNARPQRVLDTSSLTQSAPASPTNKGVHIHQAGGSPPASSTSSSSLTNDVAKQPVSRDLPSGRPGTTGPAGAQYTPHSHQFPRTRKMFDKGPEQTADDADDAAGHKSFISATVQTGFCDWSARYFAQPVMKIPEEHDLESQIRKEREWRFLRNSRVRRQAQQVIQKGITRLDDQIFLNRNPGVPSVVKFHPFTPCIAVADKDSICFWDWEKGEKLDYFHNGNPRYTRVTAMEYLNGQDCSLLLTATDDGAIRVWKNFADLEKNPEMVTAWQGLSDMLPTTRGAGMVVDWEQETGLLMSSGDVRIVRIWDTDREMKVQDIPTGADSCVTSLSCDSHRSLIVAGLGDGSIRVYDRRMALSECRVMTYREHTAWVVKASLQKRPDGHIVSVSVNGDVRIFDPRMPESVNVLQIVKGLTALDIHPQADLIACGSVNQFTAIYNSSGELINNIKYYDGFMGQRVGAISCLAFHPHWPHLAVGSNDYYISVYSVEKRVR
T1 sequence (Q9BVC4 whole entry, looked up, other chains not shown): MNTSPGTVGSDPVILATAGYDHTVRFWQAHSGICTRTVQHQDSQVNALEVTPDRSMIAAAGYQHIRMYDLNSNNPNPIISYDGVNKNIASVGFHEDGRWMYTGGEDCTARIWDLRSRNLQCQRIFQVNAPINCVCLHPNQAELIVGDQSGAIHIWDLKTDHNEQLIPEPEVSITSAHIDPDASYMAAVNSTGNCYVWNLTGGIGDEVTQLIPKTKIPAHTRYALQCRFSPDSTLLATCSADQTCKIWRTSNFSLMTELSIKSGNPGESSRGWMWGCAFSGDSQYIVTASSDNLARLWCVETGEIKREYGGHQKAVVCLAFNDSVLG
Myc proto-oncogene protein (Homo sapiens), sequence (P01106 whole entry): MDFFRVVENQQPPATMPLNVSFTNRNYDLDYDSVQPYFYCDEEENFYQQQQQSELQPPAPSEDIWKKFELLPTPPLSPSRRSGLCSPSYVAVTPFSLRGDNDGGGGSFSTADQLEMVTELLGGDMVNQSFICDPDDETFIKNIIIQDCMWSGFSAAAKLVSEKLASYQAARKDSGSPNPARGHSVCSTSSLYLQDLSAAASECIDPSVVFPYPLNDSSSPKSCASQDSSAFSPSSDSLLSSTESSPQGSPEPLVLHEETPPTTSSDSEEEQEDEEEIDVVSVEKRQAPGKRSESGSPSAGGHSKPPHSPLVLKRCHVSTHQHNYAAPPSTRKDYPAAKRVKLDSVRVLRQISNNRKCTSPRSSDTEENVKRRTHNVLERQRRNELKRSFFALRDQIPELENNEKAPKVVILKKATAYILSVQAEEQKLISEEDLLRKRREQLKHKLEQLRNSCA

Row | SMILES | inhibition [2] | inhibition [3] | inhibition [4] | inhibition [5] | inhibition [6] | inhibition [7] | inhibition [8] | inhibition [9] | inhibition [10] | Activity [11] | Activity [12] | Activity [13] | Activity [14] | Activity [15] | Activity [16] | Activity [17] | Activity [18] | Activity [19] | Activity [20] | Activity [21] | other results
1 | CC[C@H](Nc1ncnc2[nH]cnc12)c1nc2cccc(F)c2c(=O)n1-c1ccccc1 | inactive | inactive | inactive | inactive | inactive | inactive | inactive | inactive | Active | Active | Active | Active | Active | Active | Active | Active | Active | Active | Active | Active | inhibition [1]: inactive; inhibition [22]: inactive; inhibition [23]: inactive; inhibition [24]: inactive
2 | CC(C)Oc1ccc(-c2nn([C@@H](C)c3oc4ccc(F)cc4c(=O)c3-c3cccc(F)c3)c3ncnc(N)c23)cc1F [UMBRALISIB] | inactive | inactive | inactive | inactive | inactive | inactive | inactive | inactive | Active | Active | Active | Active | Active | Active | Active | Active | Active | Active | Active | Active | inhibition [22]: inactive; inhibition [23]: inactive; Activity [25]: inactive; Activity [26]: Active; inhibition [24]: inactive
